In PMC10876669, “Substrate promiscuity of inositol 1,4,5-trisphosphate kinase driven by structurally-modified ligands and active site plasticity” (Nature Communications, 2024):
Several values for one entry are separate records, joined by “and”; a condition that tells them apart may be missing. Identical values can stand only once.

How the values were obtained:
[1] = target: T1, IP3K-KD (human IP3K-KD A isoform, residues 187–461) (Homo sapiens, UniProt P23677); experiment: Ligand displacement assay: fluorescence polarization (anisotropy) of 2-FITC-InsP3/IP3K-KD complex; type: binding; details: for IC50: 100 nM IP3K-KD, 2 nM 2-FITC-InsP3, 20 mM HEPES pH 7.5, 1 mM EDTA, 50 mM KCl, n=4 replicates, 5-s and 5-p racemic, read-out: IC50, displacement of 2-FITC-InsP3 from IP3K-KD; for Kd: estimated Ki (Kd) from IC50 with [2-FITC-InsP3] 2 nM and its Kd 68 nM, read-out: Kd inferred from IC50 (Cheng and Prusoff)
T1 construct: human IP3K-KD A isoform (residues 187–461); GST (cleaved yes); made in house; host or cells: Escherichia coli BL21 star (DE3)
T1 sequence (P23677 187-461): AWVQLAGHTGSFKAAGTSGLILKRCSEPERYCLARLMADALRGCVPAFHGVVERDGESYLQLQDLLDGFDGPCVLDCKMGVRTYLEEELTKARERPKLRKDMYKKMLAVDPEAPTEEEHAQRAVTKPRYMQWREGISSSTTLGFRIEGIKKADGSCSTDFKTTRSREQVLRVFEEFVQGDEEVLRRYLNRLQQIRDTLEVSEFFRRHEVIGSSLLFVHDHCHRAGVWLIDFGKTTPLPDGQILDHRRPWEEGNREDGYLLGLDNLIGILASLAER
Description: (§1) A construct encoding human IP3K-KD A isoform (residues 187–461) into pOPTG vector was used[16]. The protein was expressed in Escherichia coli BL21 star (DE3) strain. Cells were grown at 37 °C to OD600 = 1.0 then induced with 0.4 mM IPTG for 18 h at 16 °C. Protein purification was performed by adapting the reported protocol. Cells were resuspended in buffer A (10 mM Tris pH 7.5 [4 °C], 200 mM NaCl and 2 mM DTT) and disrupted by sonication. Clarified cell lysate was diluted 1/4 in buffer B (10 mM Tris pH 7.5 [4 °C] and 2 mM DTT) and loaded into a 5 mL HiTrap heparin column (GE Healthcare) washed by buffer C (20 mM Tris pH 7.5, 50 mM NaCl and 2 mM DTT), and eluted with a 0.05 M–1 M salt gradient. The eluted sample was subsequently loaded on to a 5 mL glutathione–Sepharose HP column (GE Healthcare), washed with buffer A and eluted with reduced glutathione 10 mM (Sigma-Aldrich) in buffer A. The GST tag was cleaved with home-made TEV (tobacco etch virus) protease overnight at 4 °C, (1:40 TEV/protein mass ratio). After glutathione removal with a PD10 column, the cleaved protein was further purified using a 5 mL glutathione–Sepharose HP column (GE Healthcare) followed by gel filtration on a 16/600 Superdex200 (GE Healthcare) column equilibrated in buffer D (20 mM Tris pH 7.5 [4 °C], 0.05 M (NH4)2SO4 and 2 mM DTT). Protein samples were analyzed by SDS/PAGE, concentrated around 18 mg/mL and stored at −80 °C until use.
Binding of a competing/displacing ligand to protein is observed as a decrease in the polarization (anisotropy) of 2-FITC-InsP3. A comparison of the strength of binding of enzyme substrates, analogues and products to IP3K-KD was obtained by measurement of fluorescence polarization (here anisotropy) of 2-FITC-InsP3/IP3K-KD complex. Experimentally, 100 nM IP3K-KD was mixed with 2 nM 2-FITC-InsP3[37] in 20 mM HEPES pH 7.5, 1 mM EDTA and 50 mM KCl with the addition of displacing compounds over a range of 1 nM–50 μM. Assays were analyzed using a ClarioSTAR plate reader and IC50 values determined from fit of the data to a 4-parameter logistic as described. From IC50 values, we have estimated the Ki (Kd) values for the displacing ligands using the equation of Cheng and Prusoff:[69]1 Ki=IC50/1+L/Kd where [L] is the ligand (2-FITC-InsP3) concentration and Kd the dissociation constant for its interaction with IP3K-KD. […] Consequently, the Ki values for the displacing ligands differ trivially from their IC50 values.

[2] = target: T1, IP3K-KD (human IP3K-KD A isoform, residues 187–461); experiment: Fluorescence thermal shift analysis (Tycho NT.6, inflection temperature Ti); type: binding; details: for Ti, transition 1 (mean inflection temperature) / Ti, transition 2 (mean inflection temperature): 10 μM IP3K-KD, 100 μM chiral or 200 μM racemic ligand, AMP-PNP or ADP, 100 μM MgCl2; for Ti, transition 1 (mean inflection temperature) / Ti, transition 2 (mean inflection temperature) / ΔTi, transition 1 / ΔTi, transition 2: mean ± SD, n=3; for ΔTi, transition 1: Ti minus Ti of apo IP3K-KD (44.4); for ΔTi, transition 2: Ti minus Ti of apo IP3K-KD (53.8); for Transition 1 Ti, individual measurement / Transition 2 Ti, individual measurement: source data of Fig. 6b/6c, single replicates; for Transition 1 Dti (Ti-Ti Apo) / Transition 1 Ti Mean / Transition 2 DTi (Ti-Ti Apo) / Transition 2 Ti Mean: source data of Fig. 6c, N 3; for Binding to IP3K (in words): Fig. 6b,c; for Stabilization of IP3K-KD by ligand (in words): thermal shift, Fig. 6c
Description: as §1
Thermal protein denaturation was documented by recording intrinsic protein fluorescence at 330 and 350 nm wavelengths. The fluorescence recorded in each thermal run is plotted as 350/330 nm ratio and used to calculate the Inflection Temperature (Ti). Ti is the temperature at which a protein undergoes a transition in its folding state. This calculation is performed automatically by the Tycho NT.6 software. The protocol optimized for this procedure, involves a heating time of 2 min, a sample volume of 10 μl placed in a very thin capillary, and a temperature ramp from 35 °C (308 K) to 95 °C (368 K). For the experiment, IP3K-KD was diluted with buffer D to achieve a concentration of 0.31 mg/mL (10 μM). It was then mixed with 100 μM of chiral ligands or 200 μM of racemic ligands (all synthesized as stated in this work except InsP3 and InsP4 that were commercial from Avanti Polar Lipids), AMP-PNP (substrate analogues) or ADP (product-like ligands) and 100 μM MgCl2. Microsoft Excel was used to calculate and plot ΔTi values and standard deviations.

IP3K-KD = target: T2, IP3K-KD (Homo sapiens, UniProt P23677); experiment: HPLC analysis of IP3K-KD reaction mixtures (substrate test); type: biochemical; details: 150 nM IP3K-KD, 500 μM analogue, 1 mM ATP, 2 h at 30 °C, Fig. 7a
T2 construct: human IP3K-KD A isoform (residues 187–461); GST (cleaved yes); made in house; host or cells: Escherichia coli BL21 star (DE3)
T2 sequence (P23677 187-461): as above
Description: as §1

Structure (SMILES) | IC50 [1] | Kd [1] [nM] | Ti, transition 1 (mean inflection temperature) [2] | Ti, transition 2 (mean inflection temperature) [2] | ΔTi, transition 1 [2] | ΔTi, transition 2 [2] | Transition 1 Ti, individual measurement [2] | Transition 2 Ti, individual measurement [2] | Transition 1 Dti (Ti-Ti Apo) [2] | Transition 1 Ti Mean [2] | Transition 2 DTi (Ti-Ti Apo) [2] | Transition 2 Ti Mean [2] | Ability to act as IP3K substrate (in words) (IP3K-KD) | Binding to IP3K (in words) [2] | Stabilization of IP3K-KD by ligand (in words) [2]
O=P(O)(O)O[C@@H]1[C@@H](O)[C@H](O)[C@@H](OP(=O)(O)O)[C@H](OP(=O)(O)O)[C@H]1O [1-s, L-scyllo-inositol 1,2,4-trisphosphate] | 36 nM | 35 | 55.6 ± 0.1 ºC | 60.7 ± 0.2 ºC | 11.2 ± 0.3 ºC | 6.9 ± 0.2 ºC | 55.7 and 55.6 (2×) | 60.8 and 60.5 and 60.7 | 11.2 | 55.6 | 6.9 | 60.7 | is a good IP3K substrate | – | –
CO[C@@H]1O[C@H](CO)[C@@H](O[C@H]2[C@H](O)[C@H](O)[C@@H](OP(=O)(O)O)[C@H](OP(=O)(O)O)[C@H]2O)[C@H]1OP(=O)(O)O [compound 9, D-chiro-inositol ribophostin] | – | – | 44.5 ± 0.4 ºC | 54.5 ± 0.1 ºC | 0.1 ± 0.5 ºC | 0.7 ± 0.2 ºC | 44.2 and 44.9 and 44.5 | 54.5 (2×) and 54.4 | 0.133 | 44.5 | 0.667 | 54.5 | – | do not, or barely, bind IP3K | failure to obtain crystal complexes or observe protein stabilization
O=P(O)(O)O[C@@H]1[C@@H](O)[C@H](OP(=O)(O)O)[C@@H](OP(=O)(O)O)[C@H](OP(=O)(O)O)[C@H]1O [1-p, scyllo-inositol 1,2,3,5-tetrakisphosphate] | 51 nM | 50 | 54.7 ± 0.2 ºC | 59.9 ± 0.2 ºC | 10.3 ± 0.3 ºC | 6.1 ± 0.2 ºC | 54.7 and 54.9 and 54.6 | 59.7 and 60.0 and 59.9 | 10.3 | 54.7 | 6.1 | 59.9 | – | – | –
O=P(O)(O)O[C@H]1[C@H](O)[C@@H](OP(=O)(O)O)[C@H](OP(=O)(O)O)[C@@H](OP(=O)(O)O)[C@H]1O [InsP4, D-myo-inositol 1,3,4,5-tetrakisphosphate, reference compound] | 60 nM | 58 | 53.5 ± 0.2 ºC | 58.8 ± 0.2 ºC | 9.1 ± 0.4 ºC | 5.0 ± 0.3 ºC | 53.7 and 53.3 and 53.5 | 59.0 and 58.6 and 58.7 | 9.1 | 53.5 | 5.0 | 58.8 | – | – | –
O=P(O)(O)O[C@@H]1[C@H](O)[C@@H](O)[C@@H](OP(=O)(O)O)[C@H](OP(=O)(O)O)[C@H]1O [4-s, L-chiro-inositol 2,3,5-trisphosphate] | – | – | 51.7 ± 0.1 ºC | 57.3 ± 0.1 ºC | 7.3 ± 0.3 ºC | 3.5 ± 0.2 ºC | 51.8 and 51.7 (2×) | 57.2 and 57.3 (2×) | 7.3 | 51.7 | 3.5 | 57.3 | – | – | –
O=P(O)(O)O[C@@H]1[C@@H](O)[C@H](OP(=O)(O)O)C[C@@H](O)[C@H]1OP(=O)(O)O [3-s, D-3-deoxy-myo-inositol 1,4,6-trisphosphate] | – | – | 52.0 ± 0.2 ºC | 57.4 ± 0.1 ºC | 7.6 ± 0.3 ºC | 3.6 ± 0.2 ºC | 52.1 and 51.8 and 52.0 | 57.4 (2×) and 57.5 | 7.6 | 52.0 | 3.6 | 57.4 | – | – | –
O=P(O)(O)O[C@@H]1[C@H](O)[C@H](O)[C@@H](OP(=O)(O)O)[C@H](OP(=O)(O)O)[C@H]1O [InsP3, D-myo-inositol 1,4,5-trisphosphate, reference compound] | 140 nM and 139 nM | 136 | 52.9 ± 0.2 ºC | 58.2 ± 0.2 ºC | 8.5 ± 0.3 ºC | 4.4 ± 0.2 ºC | 52.8 and 52.9 and 53.1 | 58.1 (2×) and 58.4 | 8.5 | 52.9 | 4.4 | 58.2 | – | – | –
CO[C@@H]1O[C@H](CO)[C@@H](O[C@H]2O[C@H](CO)[C@@H](OP(=O)(O)O)[C@H](OP(=O)(O)O)[C@H]2O)[C@H]1OP(=O)(O)O [compound 8, ribophostin] | – | – | 44.2 ± 0.2 ºC | 54.1 ± 0.1 ºC | -0.2 ± 0.3 ºC | 0.3 ± 0.2 ºC | 44.2 and 44.1 and 44.4 | 54.1 (2×) and 54.2 | -0.167 | 44.2 | 0.333 | 54.1 | – | do not, or barely, bind IP3K | failure to obtain crystal complexes or observe protein stabilization
O=P(O)(O)O[C@@H]1[C@@H](O)[C@@H](O)[C@@H](OP(=O)(O)O)[C@H](OP(=O)(O)O)[C@H]1O [2-s, D-myo-inositol 1,4,6-trisphosphate] | – | – | 53.1 ± 0.3 ºC | 58.4 ± 0.2 ºC | 8.7 ± 0.4 ºC | 4.6 ± 0.2 ºC | 53.1 and 52.8 and 53.3 | 58.2 and 58.5 and 58.4 | 8.7 | 53.1 | 4.6 | 58.4 | – | – | –
